The values that follow come from patent US8791108B2, “Inhibitors of human immunodeficiency virus replication” (priority 2011, dated 2014).

A value given as a limit tells only on which side of the number the result lay.

The subject of the first assay is recombinant NL-Rluc virus. Nature of the assay: Inhibition of HIV replication (NL-RLuc luciferase reporter virus, MT-2 cells). As to conditions: Human immunodeficiency virus 1, MT2, 120 h, read-out: Activity. It counts as cell-based.
For the molecule `Cc1nc2cc(C(=O)NCCC3CCOCC3)nn2c(-c2cc(F)c3c(c2C)CCCO3)c1[C@H](OC(C)(C)C)C(=O)O` [Example 129, (2S)-2-(tert-butoxy)-2-(7-(8-fluoro-5-methylchroman-6-yl)-5-methyl-2-((2-(tetrahydro-2H-pyran-4-yl)ethyl)carbamoyl)pyrazolo[1,5-a]pyrimidin-6-yl)acetic acid], the EC50 is 0.1 to 1 µM.

For the molecule `Cc1nc2cc(C(=O)N3CCN(Cc4ccccc4)CC3)nn2c(-c2cc(F)c3c(c2C)CCCO3)c1[C@H](OC(C)(C)C)C(=O)O` [Example 94, (2S)-2-(2-(4-benzylpiperazine-1-carbonyl)-7-(8-fluoro-5-methylchroman-6-yl)-5-methylpyrazolo[1,5-a]pyrimidin-6-yl)-2-(tert-butoxy)acetic acid], the EC50 lay in the range of 0.1 to 1 µM.

`Cc1nc2cc(C(=O)Nc3cc(-c4ccccc4)nn3C)nn2c(-c2cc(F)c3c(c2C)CCCO3)c1[C@H](OC(C)(C)C)C(=O)O` [Example 84, (2S)-2-(tert-butoxy)-2-(7-(8-fluoro-5-methylchroman-6-yl)-5-methyl-2-((1-methyl-3-phenyl-1H-pyrazol-5-yl)carbamoyl)pyrazolo[1,5-a]pyrimidin-6-yl)acetic acid]: the EC50 is less than 0.1 µM.

As to `Cc1nc2cc(C(=O)NCc3cccc(OC(F)(F)F)c3)nn2c(-c2cc(F)c3c(c2C)CCCO3)c1[C@H](OC(C)(C)C)C(=O)O` [Example 67], the EC50 was less than 0.1 µM.

Consider `Cc1cc(CNC(=O)c2cc3nc(C)c([C@H](OC(C)(C)C)C(=O)O)c(N4CCC(C)(C)CC4)n3n2)ccc1F` [Example 151, (S)-2-(tert-Butoxy)-2-(7-(4,4-dimethylpiperidin-1-yl)-2-((4-fluoro-3-methylbenzyl)carbamoyl)-5-methylpyrazolo[1,5-a]pyrimidin-6-yl)acetic acid], for which the EC50 is less than 0.1 µM.

Regarding `Cc1nc2cc(C(=O)NCc3ccc(C(F)(F)F)cc3)nn2c(-c2cc(F)c3c(c2C)CCCO3)c1[C@H](OC(C)(C)C)C(=O)O` [Example 66, (2S)-2-(tert-butoxy)-2-(7-(8-fluoro-5-methylchroman-6-yl)-5-methyl-2-((4-(trifluoromethyl)benzyl)carbamoyl)pyrazolo[1,5-a]pyrimidin-6-yl)acetic acid], the EC50 was less than 0.1 µM.

For the molecule `Cc1nc2cc(C(=O)NCc3ccc(Cl)c(Cl)c3)nn2c(-c2cc(F)c3c(c2C)CCCO3)c1[C@H](OC(C)(C)C)C(=O)O` [Example 109, (2S)-2-(tert-butoxy)-2-(2-((3,4-dichlorobenzyl)carbamoyl)-7-(8-fluoro-5-methylchroman-6-yl)-5-methylpyrazolo[1,5-a]pyrimidin-6-yl)acetic acid], the EC50 is less than 0.1 µM.

In the case of `Cc1nc2cc(C(=O)N3CCC(c4ccc(F)cc4)CC3)nn2c(-c2cc(F)c3c(c2C)CCCO3)c1[C@H](OC(C)(C)C)C(=O)O` (atropisomer, axis not shown) [Example 138, (S)-2-(tert-Butoxy)-2-((S)-7-(8-fluoro-5-methylchroman-6-yl)-2-(4-(4-fluorophenyl)piperidine-1-carbonyl)-5-methylpyrazolo[1,5-a]pyrimidin-6-yl)acetic acid], the EC50 was less than 0.1 µM.

In the case of `Cc1nc2cc(C(=O)N(C)Cc3cccc(F)c3)nn2c(-c2cc(F)c3c(c2C)CCCO3)c1[C@H](OC(C)(C)C)C(=O)O` [Example 23], the EC50 was less than 0.1 µM.

On to `CNC(=O)c1cc2nc(C)c([C@H](OC(C)(C)C)C(=O)O)c(-c3cc(F)c4c(c3C)CCCO4)n2n1` [Example 137, (2S)-2-(tert-butoxy)-2-(7-(8-fluoro-5-methylchroman-6-yl)-5-methyl-2-(methylcarbamoyl)pyrazolo[1,5-a]pyrimidin-6-yl)acetic acid], for which the EC50 was more than 1 µM.

As for `Cc1nc2cc(C(=O)NS(=O)(=O)Cc3ccccc3)nn2c(-c2cc(F)c3c(c2C)CCCO3)c1[C@H](OC(C)(C)C)C(=O)O` [Example 14, (2S)-2-(2-((benzylsulfonyl)carbamoyl)-7-(8-fluoro-5-methylchroman-6-yl)-5-methylpyrazolo[1,5-a]pyrimidin-6-yl)-2-(tert-butoxy)acetic acid], the EC50 is more than 1 µM.

In the case of `COc1ccc(CCNC(=O)c2cc3nc(C)c([C@H](OC(C)(C)C)C(=O)O)c(-c4cc(F)c5c(c4C)CCCO5)n3n2)cc1` [Example 65, (2S)-2-(tert-butoxy)-2-(7-(8-fluoro-5-methylchroman-6-yl)-2-((4-methoxyphenethyl)carbamoyl)-5-methylpyrazolo[1,5-a]pyrimidin-6-yl)acetic acid], the EC50 was less than 0.1 µM.

For the molecule `Cc1ccc(CN(C)C(=O)c2cc3nc(C)c([C@H](OC(C)(C)C)C(=O)O)c(-c4cc(F)c5c(c4C)CCCO5)n3n2)cc1` [Example 32, (2S)-2-(tert-butoxy)-2-(7-(8-fluoro-5-methylchroman-6-yl)-5-methyl-2-(methyl(4-methylbenzyl)carbamoyl)pyrazolo[1,5-a]pyrimidin-6-yl)acetic acid], the EC50 is less than 0.1 µM.

For `Cc1nc2cc(C(=O)NCCC3(O)CCCC3)nn2c(-c2cc(F)c3c(c2C)CCCO3)c1[C@H](OC(C)(C)C)C(=O)O` [Example 134, (2S)-2-(tert-butoxy)-2-(7-(8-fluoro-5-methylchroman-6-yl)-2-((2-(1-hydroxycyclopentyl)ethyl)carbamoyl)-5-methylpyrazolo[1,5-a]pyrimidin-6-yl)acetic acid], the EC50 is more than 1 µM.

For the molecule `Cc1nc2cc(C(=O)NCCSC(C)(C)C)nn2c(-c2cc(F)c3c(c2C)CCCO3)c1[C@H](OC(C)(C)C)C(=O)O` [Example 136, (2S)-2-(tert-butoxy)-2-(2-((2-(tert-butylthio)ethyl)carbamoyl)-7-(8-fluoro-5-methylchroman-6-yl)-5-methylpyrazolo[1,5-a]pyrimidin-6-yl)acetic acid], the EC50 was less than 0.1 µM.

`Cc1nc2cc(C(=O)NCCC(C)(C)C)nn2c(/C=C/CC(C)C)c1[C@H](OC(C)(C)C)C(=O)O` [Example 150, (S,E)-2-(tert-Butoxy)-2-(2-((3,3-dimethylbutyl)carbamoyl)-5-methyl-7-(4-methylpent-1-en-1-yl)pyrazolo[1,5-a]pyrimidin-6-yl)acetic acid]: the EC50 was more than 1 µM.

On to `Cc1nc2cc(C(=O)NCc3cccc(-n4cccc4)c3)nn2c(-c2cc(F)c3c(c2C)CCCO3)c1[C@H](OC(C)(C)C)C(=O)O` [Example 99, (2S)-2-(2-((3-(1H-pyrrol-1-yl)benzyl)carbamoyl)-7-(8-fluoro-5-methylchroman-6-yl)-5-methylpyrazolo[1,5-a]pyrimidin-6-yl)-2-(tert-butoxy)acetic acid], for which the EC50 was less than 0.1 µM.

As to `COc1cc(CNC(=O)c2cc3nc(C)c([C@H](OC(C)(C)C)C(=O)O)c(-c4cc(F)c5c(c4C)CCCO5)n3n2)ccc1F` [Example 35, (2S)-2-(tert-butoxy)-2-(2-((4-fluoro-3-methoxybenzyl)carbamoyl)-7-(8-fluoro-5-methylchroman-6-yl)-5-methylpyrazolo[1,5-a]pyrimidin-6-yl)acetic acid], the EC50 was less than 0.1 µM.

On to `Cc1nc2cc(C(=O)N3CCC(Cc4ccccc4)CC3)nn2c(-c2cc(F)c3c(c2C)CCCO3)c1[C@H](OC(C)(C)C)C(=O)O` [Example 105, (2S)-2-(2-(4-benzylpiperidine-1-carbonyl)-7-(8-fluoro-5-methylchroman-6-yl)-5-methylpyrazolo[1,5-a]pyrimidin-6-yl)-2-(tert-butoxy)acetic acid], for which the EC50 was less than 0.1 µM.

Regarding `Cc1nc2cc(C(=O)N(C)CCc3ccccc3)nn2c(-c2cc(F)c3c(c2C)CCCO3)c1[C@H](OC(C)(C)C)C(=O)O` [Example 96, (2S)-2-(tert-butoxy)-2-(7-(8-fluoro-5-methylchroman-6-yl)-5-methyl-2-(methyl(phenethyl)carbamoyl)pyrazolo[1,5-a]pyrimidin-6-yl)acetic acid], the EC50 is less than 0.1 µM.

As for `CCCc1cc(CNC(=O)c2cc3nc(C)c([C@H](OC(C)(C)C)C(=O)O)c(-c4cc(F)c5c(c4C)CCCO5)n3n2)ccc1F` [Example 25, (2S)-2-(tert-butoxy)-2-(2-((4-fluoro-3-propylbenzyl)carbamoyl)-7-(8-fluoro-5-methylchroman-6-yl)-5-methylpyrazolo[1,5-a]pyrimidin-6-yl)acetic acid], the EC50 was less than 0.1 µM.

On to `Cc1nc2cc(C(=O)NCc3ccc(-c4ccccc4)cc3)nn2c(-c2cc(F)c3c(c2C)CCCO3)c1[C@H](OC(C)(C)C)C(=O)O` [Example 70, (2S)-2-(2-(([1,1′-biphenyl]-4-ylmethyl)carbamoyl)-7-(8-fluoro-5-methylchroman-6-yl)-5-methylpyrazolo[1,5-a]pyrimidin-6-yl)-2-(tert-butoxy)acetic acid], for which the EC50 is less than 0.1 µM.

Turning to `Cc1nc2cc(C(=O)N3CCN(Cc4ccc5c(c4)OCO5)CC3)nn2c(-c2cc(F)c3c(c2C)CCCO3)c1[C@H](OC(C)(C)C)C(=O)O` [Example 92, (2S)-2-(2-(4-(benzo[d][1,3]dioxol-5-ylmethyl)piperazine-1-carbonyl)-7-(8-fluoro-5-methylchroman-6-yl)-5-methylpyrazolo[1,5-a]pyrimidin-6-yl)-2-(tert-butoxy)acetic acid], the EC50 was 0.1 to 1 µM.

With `Cc1nc2cc(C(=O)NCc3ccccc3Cl)nn2c(-c2cc(F)c3c(c2C)CCCO3)c1[C@H](OC(C)(C)C)C(=O)O` [Example 40, (2S)-2-(tert-butoxy)-2-(2-((2-chlorobenzyl)carbamoyl)-7-(8-fluoro-5-methylchroman-6-yl)-5-methylpyrazolo[1,5-a]pyrimidin-6-yl)acetic acid], the EC50 is less than 0.1 µM.

Consider `Cc1nc2cc(C(=O)Nc3ccccc3)nn2c(-c2cc(F)c3c(c2C)CCCO3)c1[C@H](OC(C)(C)C)C(=O)O` [Example 123, (2S)-2-(tert-butoxy)-2-(7-(8-fluoro-5-methylchroman-6-yl)-5-methyl-2-(phenylcarbamoyl)pyrazolo[1,5-a]pyrimidin-6-yl)acetic acid], for which the EC50 was less than 0.1 µM.

`CCCOCCNC(=O)c1cc2nc(C)c([C@H](OC(C)(C)C)C(=O)O)c(-c3cc(F)c4c(c3C)CCCO4)n2n1` [Example 133, (2S)-2-(tert-butoxy)-2-(7-(8-fluoro-5-methylchroman-6-yl)-5-methyl-2-((2-propoxyethyl)carbamoyl)pyrazolo[1,5-a]pyrimidin-6-yl)acetic acid]: the EC50 lay in the range of 0.1 to 1 µM.

The assay is the same for the next values; noted with them: Human immunodeficiency virus 1, MT2, 120 h, read-out: EC50 μM.
In the case of `Cc1nc2cc(C(=O)NCc3cccc(OC(F)(F)F)c3)nn2c(-c2cc(F)c3c(c2C)CCCO3)c1[C@H](OC(C)(C)C)C(=O)O` [Example 67], the EC50 worked out at 0.009 µM.

For `Cc1nc2cc(C(=O)NCCC(C)(C)C)nn2c(/C=C/CC(C)C)c1[C@H](OC(C)(C)C)C(=O)O` [Example 150, (S,E)-2-(tert-Butoxy)-2-(2-((3,3-dimethylbutyl)carbamoyl)-5-methyl-7-(4-methylpent-1-en-1-yl)pyrazolo[1,5-a]pyrimidin-6-yl)acetic acid], the EC50 stood at 1.2 µM.

As to `Cc1nc2cc(C(=O)N(C)CCc3ccccc3)nn2c(-c2cc(F)c3c(c2C)CCCO3)c1[C@H](OC(C)(C)C)C(=O)O` [Example 96, (2S)-2-(tert-butoxy)-2-(7-(8-fluoro-5-methylchroman-6-yl)-5-methyl-2-(methyl(phenethyl)carbamoyl)pyrazolo[1,5-a]pyrimidin-6-yl)acetic acid], the EC50 came out at 0.077 µM.

For `CCCOCCNC(=O)c1cc2nc(C)c([C@H](OC(C)(C)C)C(=O)O)c(-c3cc(F)c4c(c3C)CCCO4)n2n1` [Example 133, (2S)-2-(tert-butoxy)-2-(7-(8-fluoro-5-methylchroman-6-yl)-5-methyl-2-((2-propoxyethyl)carbamoyl)pyrazolo[1,5-a]pyrimidin-6-yl)acetic acid], the EC50 came out at 0.185 µM.
